Measured values reported in patent US5130339A, “Phenylethanolaminomethyltetralins and pharmaceutical use” (Sanofi, priority 1989, dated 1992).

Tests used:
[1] = test system: isolated proximal colon rat strips; test: Reduction of spontaneous contractile activity of isolated proximal colon rat strips (in vitro); format: cell-based; details: Krebs-Ringer, 37° C., read-out: EC50, on colon (concentration effective to reduce by 50% the contractile activity observed in controls)
Text: In particular, their effects in reducing colon spontaneous motility have been observed in in vitro normalized pharmacological tests and has been confirmed in the animal in vivo.
In the in vitro tests, the capability of different concentrations of the phenylethanolaminomethyltetralins of the present invention to reduce, under particular normalised conditions, the spontaneous contractile activity of isolated proximal colon rat strips has been evaluated.
Not fasted male rats weighing 250-300 g are sacrificed. The proximal part of the colon, approximately a 2 to 3 cm segment, is removed and suspended in a 20-ml organ bath containing oxygenated (5% CO2, 95% O2) Krebs-Ringer solution with the following mM composition: NaCl 118.4; KCl 4.7; CaCl2 2.45; MgSO4 1.16; NaH2 PO4 3.7; glucose 5.6; NaHCO3 30.9, kept at a constant temperature of 37° C. The colon strips submitted to a 1 g traction spontaneously contract. The test compounds are added thereto after stabilisation of the preparation (2h).
The EC50, i.e. the concentration which is effective to reduce by 50% the contractile activity observed in controls, is determined.

isolated rat uterus = test: Effect on spontaneous uterus motility, same general method on isolated rat uterus (in vitro); format: cell-based; details: for selectivity ratio (EC50 uterus / EC50 colon): colon versus uterus; for EC50: isolated rat uterus, spontaneous motility

SMILES | EC50 [1] | selectivity ratio (EC50 uterus / EC50 colon) (isolated rat uterus) | EC50 (isolated rat uterus)
O=C(O)C(=O)O.Oc1ccc2c(c1)CC(CNCC(O)c1cccc(Cl)c1)CC2 (stereo not drawn) [Example 10, N-[(7-hydroxy-1,2,3,4-tetrahydronaphth-2-yl)methyl]-2-hydroxy-2-(3-chlorophenyl)ethanamine oxalate] | 7 nM | about 7 | 50 nM
COc1ccc2c(c1)CC(NCC(O)c1cccc(Cl)c1)CC2.Cl (stereo not drawn) [Example 7 of EP-B-211,721, N-(7-methoxy-1,2,3,4-tetrahydronaphth-2-yl)-2-hydroxy-2-(3-chlorophenyl)ethanamine hydrochloride] | 194 nM | lower than 2 | 350 nM
Oc1ccc2c(c1)CC(NCC(O)c1cccc(Cl)c1)CC2 (stereo not drawn) [Example 8 of EP-B-211,721] | 110 nM | 1 | 110 nM
COc1ccc2c(c1)CC(CNCC(O)c1cccc(Cl)c1)CC2.Cl (stereo not drawn) [Example 4, N-[(7-methoxy-1,2,3,4-tetrahydronaphth-2-yl)methyl]-2-hydroxy-2-(3-chlorophenyl)ethanamine hydrochloride] | 43 nM | 57 | 2450 nM
